Laboratory results taken from patent US20140342931A1, “METHOD FOR PREDICTING RESPONSE TO ENDOCRINE THERAPY” (PAMGENE B.V., priority 2011, published 2014).

System: Estrogen Receptor alpha (ERα)
From the text: Under tamoxifen, a known antagonist of the ERα, this phosphorylation affects the conformation of ERα and changes its orientation to the protein SRC-1. In this example we studied the effect of ERαSer305 phosphorylation on the binding of cofactors in transfected cells and in breast tumor specimens. We used the methods and coregulator peptide array as described in WO 2008/028978 containing 154 coregulator peptides (table 1).
ERαY/C-transfected U2OS cells were stimulated with cAMP to induce PKA-mediated ERα phosphorylation. The serine-to-alanine mutant ERαSer305Ala-Y/C was used as a negative control (FIG. 1).
The effect of PKA activation on peptide binding was also studied under tamoxifen conditions.

| Compound | modulation of ERα binding to coregulators (concentration range of estradiol up to 10^−8 M, control peptide IDNR13 (NCOA1_677_700), wild type and Ser305Ala ERα, cAMP stimulated and control cells) | ERα binding to the control peptide (IDNR13) at saturating tamoxifen concentrations (concentration range up to 10^-5 M, ERα-wt and ERαSer305Ala, with or without cAMP (PKA activation)) |
| --- | --- | --- |
| C[C@]12CC[C@@H]3c4ccc(O)cc4CC[C@H]3[C@@H]1CC[C@@H]2O [estradiol, 17-β-Estradiol] | dose dependent modulation | – |
| 4-hydroxy-Tamoxifen [4OH-tamoxifen] | – | largely blocked |
